Assay results from patent US20030109571A1, “Thromboxane ligands without blood clotting side effects” (ALLERGAN SALES, INC., priority 1993, published 2003).
Entries after “also recorded” stand apart in the source; their conditions may differ. Where two headings read alike, the source gives them in different places. Marks after values point to notes of the source that are not given here. Values belong to the compound of their own block, whether it stands above or below them.

Assays:
[1] = molecular target: T1, TXA2 receptor (Homo sapiens, UniProt P21731); conditions: in words; cited from earlier work
T1 sequence (P21731 1-343): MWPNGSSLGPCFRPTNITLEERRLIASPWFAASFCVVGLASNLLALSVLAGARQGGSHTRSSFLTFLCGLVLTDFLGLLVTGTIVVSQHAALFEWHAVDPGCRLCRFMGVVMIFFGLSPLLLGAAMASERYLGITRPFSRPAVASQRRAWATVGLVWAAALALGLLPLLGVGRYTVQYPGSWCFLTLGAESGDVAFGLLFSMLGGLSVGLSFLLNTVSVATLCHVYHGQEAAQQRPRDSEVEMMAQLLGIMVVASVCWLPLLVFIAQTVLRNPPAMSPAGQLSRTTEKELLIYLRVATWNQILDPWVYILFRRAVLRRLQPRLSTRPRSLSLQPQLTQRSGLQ

[2] = molecular target: T2, TP-receptor (vascular, TPVASC) (Rattus norvegicus, UniProt P34978); experiment: TP-vasoconstrictor activity: contraction of rings of isolated rat thoracic aorta, without or with SQ29,548; conditions: for Activity in contracting vascular smooth muscle: in words
T2 construct: measured in vitro in isolated smooth muscle preparations; from tissue; host or cells: rings of isolated rat thoracic aorta
T2 sequence (P34978 1-341): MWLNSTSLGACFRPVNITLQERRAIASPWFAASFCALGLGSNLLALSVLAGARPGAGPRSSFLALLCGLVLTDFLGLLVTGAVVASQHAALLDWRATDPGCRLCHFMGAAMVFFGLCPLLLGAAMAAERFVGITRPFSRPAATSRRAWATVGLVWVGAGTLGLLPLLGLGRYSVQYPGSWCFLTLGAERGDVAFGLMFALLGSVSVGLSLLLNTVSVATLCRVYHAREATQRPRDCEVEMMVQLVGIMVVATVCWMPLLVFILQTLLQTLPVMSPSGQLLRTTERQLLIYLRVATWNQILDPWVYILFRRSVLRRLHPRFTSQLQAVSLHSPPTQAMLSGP
Description: (§1) Activity at different prostanoid receptors was measured in vitro in isolated smooth muscle preparations. FP-activity was measured as contraction of the isolated feline iris sphincter. EP1-activity was measured as contraction of the longitudinal smooth muscle of the isolated guinea pig ileum. EP3-activity was measured as inhibition of the twitch response induced by electrical field stimulation in the isolated guinea pig was deferens and as contraction of the longitudinal smooth muscle of the isolated chick ileum. TP-vasoconstrictor activity was measured as contraction of rings of the isolated rat thoracic aorta. Effects on platelets from healthy human donors were measured by incubating platelet-rich plasma with the compounds described herein. Inhibition of aggregation was determined by the ability of the compounds described herein to inhibit platelet aggregation in platelet-rich plasma induced by 20 μM ADP.
In addition, inhibition by the thromboxane A2-receptor antagonist SQ29,548 ([1S-[1α, 2α (5Z), 3α, 4α]]-7-[3-[[2-[phenylamino)carbonyl]-hydrazino]methyl]-7-oxabicyclo[2.2.1] hept-2-yl]-5-heptenoic acid) of vasoconstrictor activity was investigated.

[3] = molecular target: FP prostanoid receptor; experiment: FP-activity: contraction of the isolated feline iris sphincter; conditions: concentration producing 50% of maximal response; read-out: EC50 at FP (Cat Iris)
Description: as §1

[4] = test system: Platelets; experiment: Effect of Example 4 pretreatment on agonist-induced platelet aggregation; assay type: cell-based, human
Description: as §1, with “Inhibition of aggregation was determined by the ability of the compounds described herein to inhibit platelet aggregation in platelet-rich plasma induced by 20 μM ADP.” left out

[5] = in vivo, iv; cited from earlier work
[6] = test system: EP3 prostanoid receptor; experiment: EP3-activity: inhibition of electrically induced twitch response in isolated guinea pig vas deferens; conditions: read-out: EC50 at EP3(c) (Guinea Pig vas deferens)
Description: as §1

[7] = Dog intraocular pressure, topical dosing, applanation pneumatonometry; assay type: in vivo; conditions: dog, dose 0.1%
Description: The compounds were prepared at the said concentrations in a vehicle comprising 0.1% polysorbate 80 and 10 mM TRIS base. Dogs and monkeys were treated by administering 25 ul to the ocular surface, the contralateral eye received vehicle as a control. Intraocular pressure was measured by applanation pneumatonometry. Experiments were performed with dogs and monkeys. Dog intraocular pressure was measured immediately before drug administration and at 2, 4 and 6 hour thereafter. Additional studies in monkeys were performed over a 5 day period and drug was administered at times 0, 6, 24, 30, 48, 54, 72, 78, and 96 hours. Monkey intraocular pressure was recorded just before drug administration on each day and at the 2 and 4 hour time intervals between dosing.

[8] = test system: EP3 prostanoid receptor; experiment: EP3-activity: contraction of longitudinal smooth muscle of isolated chick ileum; conditions: read-out: EC50 at EP3(d) (Chick Ileum)
Description: as §1

[9] = test system: platelets; conditions: in words; cited from earlier work
[10] = test system: isolated perfused coronary arteries; conditions: cat, cited from earlier work
[11] = test system: Platelets (Human); experiment: Platelet aggregation in platelet-rich plasma from healthy human donors; assay type: cell-based; conditions: for EC50: Table 1, read-out: EC50 Platelets (Human) Aggregation; for Ability to cause platelet aggregation: in words
Description: as §1

[12] = test system: vasculature; conditions: in words; cited from earlier work
[13] = test system: HPRP; conditions: in words; cited from earlier work
[14] = molecular target: T3, TX synthetase (Homo sapiens, UniProt P24557); conditions: in words; cited from earlier work
T3 sequence (P24557 1-533): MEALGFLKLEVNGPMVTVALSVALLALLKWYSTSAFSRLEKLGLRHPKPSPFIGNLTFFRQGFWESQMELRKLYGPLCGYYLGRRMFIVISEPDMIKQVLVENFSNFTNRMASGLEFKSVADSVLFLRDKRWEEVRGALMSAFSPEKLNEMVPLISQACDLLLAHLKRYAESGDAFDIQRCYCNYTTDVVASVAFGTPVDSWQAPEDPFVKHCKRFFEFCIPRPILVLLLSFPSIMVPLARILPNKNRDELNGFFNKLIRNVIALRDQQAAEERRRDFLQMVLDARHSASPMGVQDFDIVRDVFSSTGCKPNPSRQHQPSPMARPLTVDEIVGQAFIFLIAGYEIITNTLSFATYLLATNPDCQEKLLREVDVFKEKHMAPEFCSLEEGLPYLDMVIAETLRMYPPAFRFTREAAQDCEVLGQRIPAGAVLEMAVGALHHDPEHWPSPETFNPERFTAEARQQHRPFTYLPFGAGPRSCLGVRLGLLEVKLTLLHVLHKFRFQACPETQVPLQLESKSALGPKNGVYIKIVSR

[15] = test system: rat aorta; conditions: cited from earlier work
[16] = test system: rabbit PRP; conditions: in words; cited from earlier work
[17] = Table 1, read-out: EC50 at TPVASC (Rat Aorta)

EC50 [2, 17]: 324 nM
EC50 [3]: 3020 nM
SMILES: CCCCCC(O)/C=C/C1C2CC(OC(=O)O2)C1C/C=C\CCCC(=O)NC(C)C (stereo not drawn) [Example 17, 7-[6-carboisopropylamino-2-cis-hexenyl]-6-[3α-hydroxy-1-trans-octenyl]-3-oxo-2,4-dioxobicyclo [3.2.1] octane]
TXA2-like activity [1]: Mixture of C-15 epimers has stong TXA2-like activity^14

EC50 [6]: 2930 nM
EC50 [8]: > 10000 nM
EC50 [2, 17]: 1 nM
EC50 ([2]; absence of SQ29,548, read-out: EC50 at TPVASC-receptor, rat aorta): 0.9 nM
Activity in contracting vascular smooth muscle [2]: pronounced activity
EC50 ([2]; presence of SQ29,548 (1 uM), read-out: EC50 at TPVASC-receptor, rat aorta): 454 nM
EC50 [3]: 485 nM
SMILES: CCCCC[C@H](O)/C=C/[C@@H]1[C@@H](C/C=C\CCCCO)[C@@H]2C[C@H]1OC(=O)O2 [Example 4]
Platelet aggregation after Example 4 pretreatment ([4]; agonist 2 μM ADP, 10^-6 M Example 4): 73.1 ± 14.3 % of max response
Platelet aggregation after Example 4 pretreatment ([4]; agonist 2 μM ADP, 10^-7 M Example 4): 68.3 ± 12.9 % of max response
Platelet aggregation after Example 4 pretreatment ([4]; agonist 20 μM ADP, 10^-6 M Example 4): 97.6 ± 1.8 % of max response
Platelet aggregation after Example 4 pretreatment ([4]; agonist 20 μM ADP, 10^-7 M Example 4): 99.9 ± 1.4 % of max response
Platelet aggregation after Example 4 pretreatment ([4]; agonist 800 μM Arachidonic Acid, 10^-6 M Example 4): 98.8 ± 1.1 % of max response
Platelet aggregation after Example 4 pretreatment ([4]; agonist 800 μM Arachidonic Acid, 10^-7 M Example 4): 98.0 ± 1.8 % of max response
Platelet aggregation after Example 4 pretreatment ([4]; agonist 3.3 × 10-7 U46619, 10^-6 M Example 4): 94.2 ± 2.8 % of max response
Platelet aggregation after Example 4 pretreatment ([4]; agonist 3.3 × 10-7 U46619, 10^-7 M Example 4): 93.8 ± 2.3 % of max response
Platelet aggregation after Example 4 pretreatment ([4]; agonist 3.3 × 10-8 Example 7, 10^-6 M Example 4): −7.3 + 0.7 % of max response
Platelet aggregation after Example 4 pretreatment ([4]; agonist 3.3 × 10-8 Example 7, 10^-7 M Example 4): −9.0 + 1.6 % of max response
Platelet aggregation after Example 4 pretreatment ([4]; agonist 10-6 Example 7, 10^-6 M Example 4): 96.5 ± 0.9 % of max response
Platelet aggregation after Example 4 pretreatment ([4]; agonist 10-6 Example 7, 10^-7 M Example 4): 95.3 ± 0.9 % of max response
Platelet aggregation after Example 4 pretreatment ([4]; agonist 10-6 U46619, 10^-6 M Example 4): 96.0 ± 0.8 % of max response
Platelet aggregation after Example 4 pretreatment ([4]; agonist 10-6 U46619, 10^-7 M Example 4): 94.6 ± 2.6 % of max response
Platelet aggregation after Example 4 pretreatment ([4]; agonist 10-7 Example 7, 10^-6 M Example 4): 99.5 ± 1.7 % of max response
Platelet aggregation after Example 4 pretreatment ([4]; agonist 10-7 Example 7, 10^-7 M Example 4): 97.8 ± 1.7 % of max response
Platelet aggregation after Example 4 pretreatment ([4]; agonist 10-7 U46619, 10^-6 M Example 4): −5.6 + 0.9 % of max response
Platelet aggregation after Example 4 pretreatment ([4]; agonist 10-7 U46619, 10^-7 M Example 4): −5.5 + 1.1 % of max response
Platelet aggregation after Example 4 pretreatment ([4]; agonist 10-8 Example 7, 10^-6 M Example 4): −8.0 + 2.9 % of max response
Platelet aggregation after Example 4 pretreatment ([4]; agonist 10-8 Example 7, 10^-7 M Example 4): −8.4 + 0.9 % of max response
Inhibition of ADP or arachidonic acid induced platelet aggregation ([4]; in words): did not inhibit
Ischemic damage in the heart during coronary insufficiency [5]: Exacerbated ischemic damage
Intraocular pressure change ([7]; 2 HR after dosing): −6.7**
Intraocular pressure change ([7]; 4 HR after dosing): −7.7**
Intraocular pressure change ([7]; 6 HR after dosing): −8.5**
Action on platelets [9]: profound TXA antagonist
Constriction of isolated perfused coronary arteries ([10]; in words): profound constric- tion
Constriction of isolated perfused coronary arteries, potency relative to TXB2 [10]: 10^1 × TXB2
EC50 [11]: > 10000 nM
Ability to cause platelet aggregation [11]: no or minimal ability; also recorded: neither causes platelet aggregation
Action on the vasculature [12]: Potent TXA2-like agonist

SMILES: CCCCC[C@H](O)/C=C/C1C[C@H]2CC(O2)[C@@H]1C/C=C\CCCC(=O)O (stereo partly drawn) [Example 2]
Inhibition of PGH2-induced aggregation of HPRP [13]: Inhibitor of PGH2-induced ag- gregation of HPRP^1

SMILES: CCCCCC(O)/C=C/C1C2CC(OC(=O)O2)C1C/C=C\CCCC(N)=O (stereo not drawn) [Example 15, 7-[6-carboamino-2-cis-hexenyl]-6-[3α-hydroxy-1-trans-octenyl]-3-oxo-2,4-dioxobicyclo [3.2.1] octane]
Effect on TX (TXA2) synthetase [14]: did not
Contraction of rat aortic strips relative to TXA2 [15]: 0.02 × TXA2
EC50 [2, 17]: 58 nM
Activity in contracting vascular smooth muscle [2]: pronounced activity
EC50 [3]: 387 nM
EC50 [11]: 3110 nM
Ability to cause platelet aggregation [11]: no or minimal ability
Aggregation of rabbit PRP [16]: did not aggre-
Antagonism of the aggregatory effect of TXA2 [16]: did not
